# Literature values as cited in patent publication EP4813985A1, “PREPARATION OF QUINAZOLINONE DERIVATIVE AS KINASE INHIBITOR, AND USE THEREOF” (Xizang Haisco Pharmaceutical Co., Ltd., priority 2023, dated 2025).
# Assays:
# [1] = reported in the background; cited from earlier work
# BCRP = molecular target: T1, BCRP (Homo sapiens, UniProt Q9UNQ0); conditions: reported in the background; cited from earlier work
# T1 sequence (Q9UNQ0 1-655): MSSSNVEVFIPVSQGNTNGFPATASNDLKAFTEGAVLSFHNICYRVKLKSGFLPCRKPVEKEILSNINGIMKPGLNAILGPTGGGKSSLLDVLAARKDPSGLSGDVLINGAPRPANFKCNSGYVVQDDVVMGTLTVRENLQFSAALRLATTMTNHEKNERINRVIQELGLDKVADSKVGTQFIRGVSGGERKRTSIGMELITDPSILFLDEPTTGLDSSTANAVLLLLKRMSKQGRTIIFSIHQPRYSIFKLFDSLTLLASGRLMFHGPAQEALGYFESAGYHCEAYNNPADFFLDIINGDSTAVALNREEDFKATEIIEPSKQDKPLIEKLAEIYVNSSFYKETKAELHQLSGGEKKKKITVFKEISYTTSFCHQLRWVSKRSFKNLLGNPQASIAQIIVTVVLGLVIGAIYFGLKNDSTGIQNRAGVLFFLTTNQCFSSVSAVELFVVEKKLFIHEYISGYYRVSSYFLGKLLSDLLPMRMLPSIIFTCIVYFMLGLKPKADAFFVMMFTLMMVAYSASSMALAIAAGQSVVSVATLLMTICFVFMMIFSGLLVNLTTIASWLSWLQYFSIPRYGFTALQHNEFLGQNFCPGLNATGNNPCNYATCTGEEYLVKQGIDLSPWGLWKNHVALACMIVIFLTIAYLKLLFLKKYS
# MDR1 = MDR1 (Homo sapiens, UniProt P08183); conditions: reported in the background; cited from earlier work
# MDR1, sequence (P08183 whole entry, species assumed): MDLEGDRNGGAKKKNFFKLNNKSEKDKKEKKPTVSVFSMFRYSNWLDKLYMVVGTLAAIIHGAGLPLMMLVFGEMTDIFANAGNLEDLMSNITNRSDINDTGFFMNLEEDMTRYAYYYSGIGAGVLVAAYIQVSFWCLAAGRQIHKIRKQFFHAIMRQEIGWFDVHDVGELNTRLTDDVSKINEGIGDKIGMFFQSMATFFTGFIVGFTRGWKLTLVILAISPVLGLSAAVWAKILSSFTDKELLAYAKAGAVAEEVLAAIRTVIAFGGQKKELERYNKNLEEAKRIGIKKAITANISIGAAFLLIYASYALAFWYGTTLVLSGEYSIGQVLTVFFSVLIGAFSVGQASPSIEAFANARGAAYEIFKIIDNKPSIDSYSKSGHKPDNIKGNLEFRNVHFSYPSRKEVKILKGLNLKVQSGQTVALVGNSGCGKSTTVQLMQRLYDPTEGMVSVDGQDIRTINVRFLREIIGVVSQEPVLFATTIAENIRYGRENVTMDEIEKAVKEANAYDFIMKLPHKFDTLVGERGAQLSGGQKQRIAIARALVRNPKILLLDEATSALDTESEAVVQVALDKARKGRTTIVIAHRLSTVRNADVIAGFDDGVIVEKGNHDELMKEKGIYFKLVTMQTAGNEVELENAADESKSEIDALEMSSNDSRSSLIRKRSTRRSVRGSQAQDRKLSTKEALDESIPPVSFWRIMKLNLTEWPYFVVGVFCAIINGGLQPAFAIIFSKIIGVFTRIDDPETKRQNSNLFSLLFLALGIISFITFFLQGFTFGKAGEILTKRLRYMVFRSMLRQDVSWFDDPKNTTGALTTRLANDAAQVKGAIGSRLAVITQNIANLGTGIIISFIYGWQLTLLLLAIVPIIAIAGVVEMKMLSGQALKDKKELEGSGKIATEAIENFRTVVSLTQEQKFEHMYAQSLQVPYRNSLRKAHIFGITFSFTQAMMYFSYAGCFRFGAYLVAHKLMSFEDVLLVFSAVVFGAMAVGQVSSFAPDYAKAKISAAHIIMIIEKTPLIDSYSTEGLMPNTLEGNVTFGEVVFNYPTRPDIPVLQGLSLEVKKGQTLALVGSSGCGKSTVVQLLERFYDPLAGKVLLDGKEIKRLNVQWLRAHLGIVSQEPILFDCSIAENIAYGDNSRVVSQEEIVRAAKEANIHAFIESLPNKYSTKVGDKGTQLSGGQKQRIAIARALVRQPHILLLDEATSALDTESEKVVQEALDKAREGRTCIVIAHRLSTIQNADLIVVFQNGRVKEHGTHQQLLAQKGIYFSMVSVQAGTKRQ
compound,measurement,setting,value
CC(C)(C)c1nc(-c2cccc(NS(=O)(=O)c3c(F)cccc3F)c2F)c(-c2ccnc(N)n2)s1 [dabrafenib],total brain-to-plasma ratio,[1],0.023
same,BCRP efflux ratio,BCRP,21.0
same,MDR1 efflux ratio,MDR1,11.4
